These results are taken from BindingDB's records for doi:10.1016/j.bmcl.2006.12.028 (Sapienza University of Rome, 2007).

By IC50 is commonly meant the concentration that gives 50% inhibition. Low values mean inhibition by little substance, high ones a need for much substance.

The target of one experiment is T1, Histone deacetylase 2b (Zea mays, UniProt Q94F81).
T1 sequence (Q94F81 whole entry): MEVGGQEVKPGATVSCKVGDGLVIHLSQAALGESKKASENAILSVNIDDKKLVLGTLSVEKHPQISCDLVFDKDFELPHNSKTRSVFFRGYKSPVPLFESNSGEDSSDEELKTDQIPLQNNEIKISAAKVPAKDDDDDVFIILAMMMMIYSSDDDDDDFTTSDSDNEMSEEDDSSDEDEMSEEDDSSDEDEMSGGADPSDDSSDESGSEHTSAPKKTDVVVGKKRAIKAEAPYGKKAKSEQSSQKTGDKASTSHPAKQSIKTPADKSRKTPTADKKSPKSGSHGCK
Put plainly: Inhibition of maize HD2 (mean).

Experiment [1] addresses Histone deacetylase HD1-A (Zea mays). Put plainly: Inhibition of maize HD1-A (mean).
The next experiment has as its target Histone deacetylase (Zea mays, UniProt Q9ZTP8). As to the kind of experiment: Inhibition of maize HD1-B (mean).
The target of another experiment is Histone deacetylase 1 (Mus musculus, UniProt O09106). As to the kind of experiment: Inhibition of mouse HDAC1 (mean).
Sequence of Histone deacetylase 1 (O09106 whole entry): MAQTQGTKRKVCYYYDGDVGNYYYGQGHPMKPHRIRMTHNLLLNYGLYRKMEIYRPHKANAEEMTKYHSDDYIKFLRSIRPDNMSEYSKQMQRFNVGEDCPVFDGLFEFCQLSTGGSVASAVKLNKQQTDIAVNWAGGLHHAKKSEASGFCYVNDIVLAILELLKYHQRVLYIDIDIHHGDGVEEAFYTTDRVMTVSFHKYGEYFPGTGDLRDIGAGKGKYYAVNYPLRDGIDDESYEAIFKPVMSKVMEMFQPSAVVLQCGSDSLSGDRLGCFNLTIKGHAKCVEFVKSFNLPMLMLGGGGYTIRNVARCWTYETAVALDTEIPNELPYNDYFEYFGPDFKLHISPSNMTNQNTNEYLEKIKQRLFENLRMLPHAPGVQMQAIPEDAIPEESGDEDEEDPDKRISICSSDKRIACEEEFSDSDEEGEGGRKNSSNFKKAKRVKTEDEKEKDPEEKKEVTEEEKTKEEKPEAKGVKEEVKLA

Sequence of Histone deacetylase (Q9ZTP8 whole entry): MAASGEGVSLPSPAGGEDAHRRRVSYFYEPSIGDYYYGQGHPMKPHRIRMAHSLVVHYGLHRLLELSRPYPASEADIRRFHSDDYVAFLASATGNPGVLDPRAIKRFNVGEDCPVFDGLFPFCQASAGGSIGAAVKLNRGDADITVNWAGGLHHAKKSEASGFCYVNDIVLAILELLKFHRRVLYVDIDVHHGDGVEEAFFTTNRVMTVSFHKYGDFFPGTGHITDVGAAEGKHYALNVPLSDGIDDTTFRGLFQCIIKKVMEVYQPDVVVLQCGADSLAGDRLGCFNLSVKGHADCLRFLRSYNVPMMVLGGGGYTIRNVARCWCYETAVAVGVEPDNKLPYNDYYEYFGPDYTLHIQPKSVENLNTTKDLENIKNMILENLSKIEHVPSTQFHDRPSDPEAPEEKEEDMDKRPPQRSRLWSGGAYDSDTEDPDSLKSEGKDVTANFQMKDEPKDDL

`O=C(CCCCCCC(=O)Nc1ccccc1)NO` [Zolinza] registered an IC50 on Histone deacetylase 2b of 49.2 nM.
`O=C(CCCCSc1nc(-c2ccc(Cl)cc2)cc(=O)[nH]1)NO`: the IC50 in experiment [1] came out at 2.83 nM; against Histone deacetylase, 11.3 nM; against Histone deacetylase 2b, 17 nM; on Histone deacetylase 1 it was 50.9 nM.
For `O=C(CCCCSc1nc(-c2cccc(Cl)c2)cc(=O)[nH]1)NO`, the values for the IC50 on Histone deacetylase, against Histone deacetylase 2b and at Histone deacetylase 1 were 11.3 nM, 17 nM and 36.7 nM, respectively.
